One data set relates to DSG2. The data set is described as follows: DSG2 protein knockdown in KMS-11 cells by Western blot. The data set is classed as cell-based, human. Conditions: stable shRNA expression. From the text:
Lentiviral vectors (pGIPZ) expressing DSG2-shRNA and non-silencing control-shRNA were obtained from Open Biosystem (Dharmacon). The following shRNA sequences were cloned into the pGIPZ expression plasmid: 5′-TGGATGTCAATGACAATAT-3′ (DSG2-shRNA60) (SEQ ID NO. 2); 5′-CCAGTGTTCTACCTAAATA-3′ (DSG2-shRNA62) (SEQ ID NO. 3); and
5′-[…]-3′ (non-silencing shRNA) (SEQ ID NO. 4). Replication incompetent lentiviral particles were generated by transiently co-transfecting HEK293T cells with ViraPower Lentiviral Support Kit (Invitrogen) and pGIPZ-shRNA vectors using Lipofectamine 2000 (Invitrogen). […]
KMS-11 cells cultured on 100 mm Petri dishes were washed twice with ice-cold PBS and solubilized in RIPA lysis buffer (150 mM NaCl, 50 mM Tris-HCl, pH 7.5, 1% Triton X-100, 1% deoxycholate, 0.1% SDS, and 2 mM EDTA) containing both protease (cOmplete™, Roche) and phosphatase inhibitors (PhosStop™, Roche) for 10 min on ice. The lysates were clarified by centrifugation at 13,000×g for 10 min at 4° C., and protein concentrations determined using the bicinchoninic acid protein assay kit (Pierce). […] After washing, immunoreactivity was detected by using the Odyssey infrared imager (Li-COR). […] Band intensities were quantitated by densitometry using the software associated with the Odyssey infrared imager (Li-COR).
A general note: Immunoblotting shows a protein as a band on a membrane.

Data set [1] concerns the target human desmoglein 2 (DSG2) (human) (UniProt Q14126). The data set is described as follows: cell-based or functional assay.
Data set [2] relates to KMS-11 human multiple myeloma cells. The data set is described as follows: Cell viability by AnnexinV staining, flow cytometric analysis. The data set is classed as cell-based. The conditions noted are these: overnight exposure, 4 nM. The text has this: (§1) Lentiviral vectors (pGIPZ) expressing DSG2-shRNA and non-silencing control-shRNA were obtained from Open Biosystem (Dharmacon) and cloned into the pGIPZ expression plasmid: 5′-TGGATGTCAATGACAATAT-3′ (SEQ ID NO: 2; DSG2-shRNA60); 5′-CCAGTGTTCTACCTAAATA-3′ (SEQ ID NO:3; DSG2-shRNA62); and 5′-[…]-3′ (SEQ ID NO: 4; non-silencing shRNA). Replication incompetent lentiviral particles were generated by transiently co-transfecting HEK293T cells with ViraPower Lentiviral Support Kit (Invitrogen) and pGIPZ-shRNA vectors using Lipofectamine 2000 (Invitrogen). Lentiviral supernatant was harvested 72 hours post-transfection and used to transduce 1×10^5 KMS-11 cells that were seeded in a 6-well plate, in the presence of 4 μg/mL polybrene. Puromycin (1 μg/mL) was continually added to maintain culture of cells with the transduced vectors and DSG2 expression was routinely checked using flow cytometry and western blot. Cell without and with DSG2 KD were cultured with increasing concentrations of Bortezomib (2-4 nM, (Janssen Cilag, New Brunswick NJ)) and after 12 hours the cell viability was determined using AnnexinV staining using flow cytometric analysis.
(In flow cytometry, cells or beads pass a laser one at a time.)

The subject of data set [3] is KMS-11 cells with stable knockdown of DSG2 (DSG2 shRNA). The data set is described as follows: Cell viability by AnnexinV staining, cells with stable DSG2 knockdown. The data set is classed as cell-based, human. Conditions: over 12 hours at 2 nM and 4 nM; compared with cells without knockdown.
From the text: as §1

“5′-TGGATGTCAATGACAATAT-3′ [DSG2-shRNA60]”: in the data set on DSG2, the “knockdown of DSG2 protein” value is “Efficient knockdown”.

Consider “human desmoglein 2 (DSG2) (from UniProt Q14126 50-1118)”, for which, in data set [1], the reduction in adhesion of KMS-11 cells with DSG2 knockdown (shRNA construct A) to a BMEC-DSG2 monolayer, compared to the NT control cell line was determined as 28.1% and the reduction in adhesion of KMS-11 cells with DSG2 knockdown (shRNA construct C) to a BMEC-DSG2 monolayer, compared to the NT control cell line was found to be 35.6%.

For “5′-CCAGTGTTCTACCTAAATA-3′ [DSG2-shRNA62]”, the “knockdown of DSG2 protein” value in the data set on DSG2 is on record as “Efficient knockdown”.

In the case of `CC(C)C[C@H](NC(=O)[C@H](Cc1ccccc1)NC(=O)c1cnccn1)B(O)O` [Bortezomib], in data set [2], the “viability of KMS-11 human multiple myeloma cells” value is recorded as “reduced”. Also, the “sensitivity to Bortezomib (cell viability) of KMS-11 cells with stable DSG2 knockdown” value in data set [3] is “even further increased sensitivity”.

These data come from patent US20240110915A1, “METHODS, PRODUCTS AND SYSTEMS FOR PROGNOSIS OF SUBJECTS SUFFERING FROM MULTIPLE MYELOMA” (University of South Australia, priority 2020, published 2024).
